Experiments:
Assay type in all cases: physicochemical
[1] = Slurry experiment to estimate rate of conversion of Form III to Form VI (XRPD); settings: slurry at 45° C. in ethanol-water (1:9), seeded with Form VI, XRPD analysis
Description: Form VI may be prepared by slurrying albaconazole in aqueous ethanol or by slowly cooling a saturated aqueous ethanol solution that was seeded. In order to estimate rate of conversion, a slurry experiment of Form III was setup at 45° C. in ethanol-water (1:9), seeded with Form VI and aliquots periodically removed. Solids from the first aliquot removed after ˜3 hours were composed of only Form VI by XRPD analysis. A slow cool method was also attempted by cooling a saturated solution of albaconazole in aqueous ethanol that was seeded. Form VI solids were isolated in a 41% yield.

[2] = Solid-form conversion on extended storage; settings: storage for 3 months at 40° C. and 75% RH
Description: (§1) Accordingly, the present subject matter relates to methods of identifying, obtaining, and purifying the various crystalline forms of (1R,2R)-7-chloro-3-[2-(2,4-difluorophenyl)-2-hydroxy-1-methyl-3-(1H-1,2,4-triazol-1-yl)propyl]quinazolin-4(3H)-one. These crystalline forms, namely Forms I-VI, were identified as six distinct crystal forms. Certain physical characteristics of these crystalline forms generated during crystallization studies, are as follows: • Form I: typically obtained by crystallizing the amorphous form using supercritical CO2 crystallization conditions. […] Diethyl ether can then be optionally added. […] Form V can best be characterized as a crystalline phase containing between about 2 and about 7% by weight of ethyl acetate and about 0.5 to about 2.5% by weight of hexane. • Form VI: typically obtained by slurrying (1R,2R)-7-chloro-3-[2-(2,4-difluorophenyl)-2-hydroxy-1-methyl-3-(1H-1,2,4-triazol-1-yl)propyl]quinazolin-4(3H)-one in aqueous ethanol or by slowly cooling a saturated aqueous ethanol solution that was seeded. This form may be obtained when the slurry comprises any other Form of (1R,2R)-7-chloro-3-[2-(2,4-difluorophenyl)-2-hydroxy-1-methyl-3-(1H-1,2,4-triazol-1-yl)propyl]quinazolin-4(3H)-one, such as, for example, the amorphous form, Form III, Form IV, Form V, or combinations thereof. […]

[3] = Storage stability, detection of degradation products
Description: as §1

[4] = Hygroscopicity characterisation

Compound | time to complete conversion of slurry to Form VI [1] [h] | conversion of the original form to Form IV on storage [2] | degradation products detected after storage ([3]; 6 months of storage at 25° C./60% RH) | degradation products detected after storage ([3]; 6 months of storage at 30° C./65% RH) | hygroscopicity [4]
C[C@@H](n1cnc2cc(Cl)ccc2c1=O)[C@](O)(Cn1cncn1)c1ccc(F)cc1F [Form III, (1R,2R)-7-chloro-3-[2-(2,4-difluorophenyl)-2-hydroxy-1-methyl-3-(1H-1,2,4-triazol-1-yl)propyl]quinazolin-4(3H)-one] | ~3 | some but not all of the original form converts to Form IV | No degradation products | No degradation products | 
C[C@@H](n1cnc2cc(Cl)ccc2c1=O)[C@](O)(Cn1cncn1)c1ccc(F)cc1F [Form VI, (1R,2R)-7-chloro-3-[2-(2,4-difluorophenyl)-2-hydroxy-1-methyl-3-(1H-1,2,4-triazol-1-yl)propyl]quinazolin-4(3H)-one] |  |  |  |  | non-hygroscopic

Source: patent publication US8258296B2, “Crystalline antifungal compounds” (Palau Pharma, S.A., priority 2006, dated 2012)
